System: moderate-to-severe chronic spontaneous urticaria (CSU)
Assay: Phase 2 CSU study: urticaria activity score over 7 days (UAS7)
Type: in vivo, human
Set-up: key to UAS7 Median / UAS7 Change from baseline Median / UAS7 change from baseline, Q1 / UAS7 change from baseline, Q3 / UAS7 change from baseline, Max / UAS7 Change from baseline LS Mean (SE): UAS7 points; daily UAS score ranges 0–6 points/day, over 7 days
Text: The study comprises a 12 week, randomized, double-blind, placebo-controlled, multi-center, dose-ranging efficacy and safety phase, followed by a 40 week open label extension (OLE) phase (see FIG. 1). The study consists of three phases and an optional OLE phase. […] Clinically, CSU is characterized by the spontaneous and recurrent appearance of pruritic hives. The proposed primary endpoints were the UAS7 at Week 12 in EU and EU reference countries and the ISS7 in the US. Regardless of where a participant was from, all assessments were the same. The UAS7 score is a composite score containing both the HSS7 and the ISS7. This allowed a global assessment of the two key components of urticaria: hives and itch. […] The UAS is a validated PRO measure. […] The daily UAS scores range from 0 to 6 point/day. […] Patients were to complete the UAS using the e-diary. […] The following secondary endpoints were to be analyzed using the same approach as for the primary endpoint: • Change from baseline in UAS7 at Week 4 • Change from baseline in UAS7 at Week 12 (for US and US reference countries) • Change from baseline in ISS7 at Week 12 (except US and US reference countries) • Change from baseline in HSS7 at Week 12 The following responder secondary endpoints were to be analyzed using the Cochran-Mantel-Haenszel test adjusted by region: • Proportion of participants with UAS7<6 at Week 12 • Proportion of participants with UAS7=0 at Week 12 Participants who received selected prohibited medications and/or rescue medications were to be considered as non-responders for time points after the medication usage. For other participants, all available data including those collected during the off-treatment period were to be used to determine the responder/non-responder status. Missing data were to be considered as non-responders.

[1] = Week 6, 400 mg BID, ITT population
[2] = Week 6, 400 mg BID, Omalizumab-Naïve
[3] = Week 6, 400 mg BID, Prior Omalizumab Use
[4] = Week 6, 400 mg BID, omalizumab-naive participants
[5] = Week 6, 400 mg QPM, ITT population
[6] = Week 6, 400 mg QPM, Omalizumab-Naïve
[7] = Week 6, 400 mg QPM, Prior Omalizumab Use
[8] = Week 6, 400 mg QPM, omalizumab-naive participants
[9] = Week 6, 400 mg TID, ITT population
[10] = Week 6, 400 mg TID, Omalizumab-Naïve
[11] = Week 6, 400 mg TID, Prior Omalizumab Use
[12] = Week 6, 400 mg TID, omalizumab-naive participants
[13] = Week 7, 400 mg BID, ITT population
[14] = Week 7, 400 mg BID, Omalizumab-Naïve

CC(C)(C=C(C#N)C(=O)N1CCC[C@@H](n2nc(-c3ccc(Oc4ccccc4)cc3F)c3c(N)ncnc32)C1)N1CCN(C2COC2)CC1 [rilzabrutinib, (R)-2-[3-[4-amino-3-(2-fluoro-4-phenoxy-phenyl)pyrazolo[3,4-d]pyrimidin-1-yl]piperidine-1-carbonyl]-4-methyl-4-[4-(oxetan-3-yl)piperazin-1-yl]pent-2-enenitrile]
OR for rilzabrutinib vs. placebo, UAS7 reduction of 10 points or more [1]: 1.222 | RRD (%) for rilzabrutinib vs. placebo, UAS7 reduction of 10 points or more [1]: 4.9 % | Responder, UAS7 reduction from baseline of 10 points or more [1]: 21 (51.2) n (%) | UAS7 Change from baseline Mean (SD) [2]: −12.76 (11.42) | UAS7 Mean (SD) [2]: 17.02 (12.76) | UAS7 Median [2]: 16.50 | UAS7 Percent change from baseline Mean (SD) [2]: −43.89 (39.18) % | UAS7 Percent change from baseline Median [2]: −38.06% | UAS7 Change from baseline Mean (SD) [3]: −18.97 (18.81) | UAS7 Change from baseline Median [3]: −26.00 | UAS7 Mean (SD) [3]: 13.03 (15.45) | UAS7 Median [3]: 5.83 | UAS7 Percent change from baseline Mean (SD) [3]: −54.26 (54.98) % | UAS7 Percent change from baseline Median [3]: −86.11% | Non-responder, UAS7 reduction from baseline of 10 points or more [4]: 17 (48.6) n (%) | OR for rilzabrutinib vs. placebo, UAS7 reduction of 10 points or more [4]: 1.486 | RRD (%) for rilzabrutinib vs. placebo, UAS7 reduction of 10 points or more [4]: 9.8 % | Responder, UAS7 reduction from baseline of 10 points or more [4]: 18 (51.4) n (%) | Non-responder, UAS7 reduction from baseline of 10 points or more [5]: 22 (57.9) n (%) | OR for rilzabrutinib vs. placebo, UAS7 reduction of 10 points or more [5]: 0.959 | RRD (%) for rilzabrutinib vs. placebo, UAS7 reduction of 10 points or more [5]: −1.0 % | Responder, UAS7 reduction from baseline of 10 points or more [5]: 16 (42.1) n (%) | UAS7 Change from baseline Mean (SD) [6]: −11.79 (10.56) | UAS7 Change from baseline Median [6]: −9.00 | UAS7 Mean (SD) [6]: 20.21 (10.42) | UAS7 Median [6]: 18.25 | UAS7 Percent change from baseline Mean (SD) [6]: −35.97 (30.17) % | UAS7 Percent change from baseline Median [6]: −37.30% | UAS7 Change from baseline Mean (SD) [7]: −24.00 (NC) | UAS7 Change from baseline Median [7]: −24.00 | UAS7 Mean (SD) [7]: 17.00 (NC) | UAS7 Median [7]: 17.00 | UAS7 Percent change from baseline Mean (SD) [7]: −58.54 (NC) % | UAS7 Percent change from baseline Median [7]: −58.54% | Non-responder, UAS7 reduction from baseline of 10 points or more [8]: 22 (59.5) n (%) | OR for rilzabrutinib vs. placebo, UAS7 reduction of 10 points or more [8]: 0.981 | RRD (%) for rilzabrutinib vs. placebo, UAS7 reduction of 10 points or more [8]: −0.5 % | Responder, UAS7 reduction from baseline of 10 points or more [8]: 15 (40.5) n (%) | Non-responder, UAS7 reduction from baseline of 10 points or more [9]: 16 (39.0) n (%) | OR for rilzabrutinib vs. placebo, UAS7 reduction of 10 points or more [9]: 1.787 | RRD (%) for rilzabrutinib vs. placebo, UAS7 reduction of 10 points or more [9]: 14.2 % | Responder, UAS7 reduction from baseline of 10 points or more [9]: 25 (61.0) n (%) | UAS7 Change from baseline Mean (SD) [10]: −15.94 (12.03) | UAS7 Change from baseline Median [10]: −15.00 | UAS7 Mean (SD) [10]: 14.10 (11.23) | UAS7 Median [10]: 14.00 | UAS7 Percent change from baseline Mean (SD) [10]: −52.07 (35.76) % | UAS7 Percent change from baseline Median [10]: −47.83% | UAS7 Change from baseline Mean (SD) [11]: −26.03 (14.05) | UAS7 Change from baseline Median [11]: −26.58 | UAS7 Median [11]: 3.00 | UAS7 Percent change from baseline Mean (SD) [11]: −78.40 (28.08) % | UAS7 Percent change from baseline Median [11]: −89.66% | Non-responder, UAS7 reduction from baseline of 10 points or more [12]: 15 (42.9) n (%) | OR for rilzabrutinib vs. placebo, UAS7 reduction of 10 points or more [12]: 1.770 | RRD (%) for rilzabrutinib vs. placebo, UAS7 reduction of 10 points or more [12]: 14.6 % | Responder, UAS7 reduction from baseline of 10 points or more [12]: 20 (57.1) n (%) | Non-responder, UAS7 reduction from baseline of 10 points or more [13]: 18 (43.9) n (%) | OR for rilzabrutinib vs. placebo, UAS7 reduction of 10 points or more [13]: 1.899 | RRD (%) for rilzabrutinib vs. placebo, UAS7 reduction of 10 points or more [13]: 15.6 % | Responder, UAS7 reduction from baseline of 10 points or more [13]: 23 (56.1) n (%) | UAS7 Change from baseline Mean (SD) [14]: −14.03 (11.20) | UAS7 Change from baseline Median [14]: −12.75 | UAS7 Mean (SD) [14]: 15.55 (11.97) | UAS7 Median [14]: 14.88 | UAS7 Percent change from baseline Mean (SD) [14]: −48.14 (36.14) %
